{"source": "paper PMC10503797", "about": "“Allosteric modulator potentiates β2AR agonist–promoted bronchoprotection in asthma models” (The Journal of Clinical Investigation, 2023)", "key": {"guinea pig β2AR [1]": {"target": "T1, guinea pig β2AR (Cavia porcellus, UniProt Q8K4Z4)", "T1 sequence (Q8K4Z4 whole entry)": "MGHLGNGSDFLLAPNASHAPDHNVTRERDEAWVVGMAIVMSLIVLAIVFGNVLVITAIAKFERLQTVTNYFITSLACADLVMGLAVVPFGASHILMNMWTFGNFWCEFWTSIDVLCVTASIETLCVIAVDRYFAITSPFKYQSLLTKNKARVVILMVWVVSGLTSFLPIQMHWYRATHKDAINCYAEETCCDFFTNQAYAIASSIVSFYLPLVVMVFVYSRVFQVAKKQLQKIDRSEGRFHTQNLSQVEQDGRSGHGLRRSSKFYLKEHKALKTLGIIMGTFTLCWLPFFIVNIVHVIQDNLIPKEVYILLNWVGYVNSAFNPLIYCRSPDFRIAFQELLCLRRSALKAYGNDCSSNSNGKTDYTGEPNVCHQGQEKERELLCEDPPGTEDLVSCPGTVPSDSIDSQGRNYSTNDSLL", "test": "125I-CYP radioligand competition binding, guinea pig β2AR", "settings": "Cmpd-6 [25 uM]"}, "guinea pig β2AR [2]": {"target": "T1, guinea pig β2AR", "test": "GloSensor cAMP, constitutive activity of overexpressed guinea pig β2AR"}, "[3]": {"tested_on": "lung slices obtained from ovalbumin-sensitized guinea pigs", "test": "Ovalbumin-induced airway constriction in lung slices from ovalbumin-sensitized guinea pigs", "format": "cell-based, guinea pig", "set-up": "key to OVA-induced airway constriction response (Figure 6): max constriction as % of initial (baseline) airway luminal area", "settings": "0.1 µM Fenoterol + 25 µM Cmpd-6, Exp1-5", "from_the_text": "All curve fits were generated using the software program GraphPad Prism. Data are represented as mean ± SEM of 4–5 guinea pigs (see Table 2 for statistical analyses).\nOutbred, male, specified pathogen-free Dunkin Hartley guinea pigs (Charles River Laboratory) weighing 200 to 400 g were used. The animals were housed in pairs under a 12-hour light/dark cycle in a temperature- and humidity-controlled room with food and tap water ad libitum. For studies in the guinea pig model of allergic asthma, animals were actively IgE-sensitized to ovalbumin by injecting a suspension containing 100 μg/mL ovalbumin and 100 mg/mL Al(OH)3 in saline. Each animal was injected with 1.0 mL of suspension: 0.5 mL was injected i.p. and 0.5 mL was divided over 7 s.c. sites close to lymph nodes in the neck, paws, and lumbar regions ([24]). Animals were euthanized at least 4 weeks after sensitization.\nPrecision-cut lung slices were prepared as described previously ([61], [62]). A 3% solution of low melting-point agarose (Gerbu Biotechnik GmbH) in ultrapure water was prepared by heating it a microwave until fully dissolved. […] After filling, the lungs were covered with ice for 30 minutes to solidify the agarose for slicing. […] Lung slices were cut at a thickness of 500 μm and washed several times with slicing buffer to remove debris and washout the isoproterenol. Slices were incubated overnight in a 60 mm dish in sterile incubation buffer: MEM composed of lung slice buffer supplemented with 0.5 mM sodium pyruvate, 1 mM glutamine (Gibco), MEM-amino acids mixture (1:50), MEM-vitamins mixture (1:100; Gibco), and penicillin-streptomycin (1:100; Gibco), pH = 7.2, at 37°C in a CO2- and humidity-controlled atmosphere.\nAfter washing the slices in medium, individual guinea pig lung slices were mechanically maintained with a Teflon ring with an inner diameter of 7 mm and covered with 1 mL of incubation buffer. […] Image acquisition software (NIS-Elements, Nikon) was used to quantify airway luminal area. Images of the airways were acquired every 2 seconds during the whole course of the experiment, starting 2 minutes before the addition of any agent to allow for baseline measurements of the airway caliber. For each methacholine or ovalbumin concentration, the maximal airway constriction was expressed as percentage of the initial (baseline) airway luminal area and plotted against that concentration."}}, "note": "“And” between values parts separate entries of the source, which are not always exact repeats. Equal entries are not always repeated."}
{"smiles": "COc1ccc(Sc2ccc(S(=O)(=O)N(C)C(C)C)cc2C(=O)N[C@H](CC(N)=O)Cc2ccc(C(C)(C)C)cc2)cc1", "note": "[Cmpd-6]", "values": [{"measurement": "125I-CYP binding, Alb competition curve (Figure 4E)", "setting": "guinea pig β2AR [1]; Log [Alb] (M) -8.70927", "result": "98.1238 and 100.926 and 100.115 and 99.527"}, {"measurement": "125I-CYP binding, Alb competition curve (Figure 4E)", "setting": "guinea pig β2AR [1]; Log [Alb] (M) -9.31133", "result": "102.128 and 99.4951 and 103.592 and 101.926"}, {"measurement": "125I-CYP binding, Alb competition curve (Figure 4E)", "setting": "guinea pig β2AR [1]; Log [Alb] (M) -9.91339", "result": "98.9354 and 102.792 and 101.444 and 100.327"}, {"measurement": "125I-CYP binding, Alb competition curve (Figure 4E)", "setting": "guinea pig β2AR [1]; Log [Alb] (M) -11 (DMSO)", "result": "100.906 and 97.7704 and 98.4446 and 97.5175"}, {"measurement": "125I-CYP binding, FEN competition curve (Figure 4D)", "setting": "guinea pig β2AR [1]; Log [FEN] (M) -4.49485", "result": "1.409 and 1.866 and 2.061 and 1.201"}, {"measurement": "125I-CYP binding, FEN competition curve (Figure 4D)", "setting": "guinea pig β2AR [1]; Log [FEN] (M) -6.90309", "result": "30.825 and 36.7624 and 55.798 and 36.3648"}, {"measurement": "125I-CYP binding, FEN competition curve (Figure 4D)", "setting": "guinea pig β2AR [1]; Log [FEN] (M) -7.50515", "result": "56.6182 and 66.5595 and 80.6389 and 63.8444"}, {"measurement": "125I-CYP binding, FEN competition curve (Figure 4D)", "setting": "guinea pig β2AR [1]; Log [FEN] (M) -8.10721", "result": "85.2358 and 86.7408 and 95.8272 and 89.5788"}, {"measurement": "125I-CYP binding, FEN competition curve (Figure 4D)", "setting": "guinea pig β2AR [1]; Log [FEN] (M) -8.70927", "result": "93.1548 and 97.3369 and 100.273 and 95.4081"}, {"measurement": "125I-CYP binding, FEN competition curve (Figure 4D)", "setting": "guinea pig β2AR [1]; Log [FEN] (M) -9.31133", "result": "99.631 and 100.281 and 99.1957 and 101.634"}, {"measurement": "125I-CYP binding, FEN competition curve (Figure 4D)", "setting": "guinea pig β2AR [1]; Log [FEN] (M) -9.91339", "result": "99.9681 and 102.324 and 101.127 and 101.353"}, {"measurement": "125I-CYP binding, FEN competition curve (Figure 4D)", "setting": "guinea pig β2AR [1]; Log [FEN] (M) -11 (DMSO)", "result": "101.956 and 98.6366 and 99.5621 and 98.3857"}, {"measurement": "125I-CYP binding, ISO competition curve (Figure 4B)", "setting": "guinea pig β2AR [1]; Log [ISO] (M) -5.09691", "result": "1.411 and 1.274 and 2.38 and 2.249 and 1.1946"}, {"measurement": "125I-CYP binding, ISO competition curve (Figure 4B)", "setting": "guinea pig β2AR [1]; Log [ISO] (M) -6.90309", "result": "12.3266 and 14.2939 and 23.2433 and 22.4081 and 20.0289"}, {"measurement": "125I-CYP binding, ISO competition curve (Figure 4B)", "setting": "guinea pig β2AR [1]; Log [ISO] (M) -7.50515", "result": "28.0286 and 51.334 and 48.5832 and 48.3069 and 46.746"}, {"measurement": "125I-CYP binding, ISO competition curve (Figure 4B)", "setting": "guinea pig β2AR [1]; Log [ISO] (M) -8.70927", "result": "84.2583 and 93.8004 and 93.7052 and 91.4625 and 91.5747"}, {"measurement": "125I-CYP binding, ISO competition curve (Figure 4B)", "setting": "guinea pig β2AR [1]; Log [ISO] (M) -9.31133", "result": "94.8589 and 99.2775 and 101.069 and 99.6071 and 99.1245"}, {"measurement": "125I-CYP binding, ISO competition curve (Figure 4B)", "setting": "guinea pig β2AR [1]; Log [ISO] (M) -9.91339", "result": "97.1607 and 99.3939 and 99.6796 and 99.8936 and 100.155"}, {"measurement": "125I-CYP binding, ISO competition curve (Figure 4B)", "setting": "guinea pig β2AR [1]; Log [ISO] (M) -11 (DMSO)", "result": "103.398 and 98.8874 and 98.4421 and 101.926 and 100.783"}, {"measurement": "125I-CYP binding, Salm competition curve (Figure 4F)", "setting": "guinea pig β2AR [1]; Log [Salm] (M) -5.09691", "result": "4.291 and 4.483 and 7.953 and 4.185"}, {"measurement": "125I-CYP binding, Salm competition curve (Figure 4F)", "setting": "guinea pig β2AR [1]; Log [Salm] (M) -5.69897", "result": "11.1208 and 11.4804 and 19.9536 and 11.286"}, {"measurement": "125I-CYP binding, Salm competition curve (Figure 4F)", "setting": "guinea pig β2AR [1]; Log [Salm] (M) -6.30103", "result": "31.3057 and 32.3004 and 47.2072 and 32.0545"}, {"measurement": "125I-CYP binding, Salm competition curve (Figure 4F)", "setting": "guinea pig β2AR [1]; Log [Salm] (M) -6.90309", "result": "67.1995 and 66.2422 and 79.0931 and 66.807"}, {"measurement": "125I-CYP binding, Salm competition curve (Figure 4F)", "setting": "guinea pig β2AR [1]; Log [Salm] (M) -7.50515", "result": "88.5873 and 88.904 and 95.0429 and 88.3948"}, {"measurement": "125I-CYP binding, Salm competition curve (Figure 4F)", "setting": "guinea pig β2AR [1]; Log [Salm] (M) -8.10721", "result": "97.9774 and 97.2972 and 97.374 and 97.0377"}, {"measurement": "125I-CYP binding, Salm competition curve (Figure 4F)", "setting": "guinea pig β2AR [1]; Log [Salm] (M) -8.70927", "result": "99.3713 and 100.399 and 100.671 and 100.779"}, {"measurement": "125I-CYP binding, Salm competition curve (Figure 4F)", "setting": "guinea pig β2AR [1]; Log [Salm] (M) -9.31133", "result": "100.672 and 102.486 and 99.6753 and 100.402"}, {"measurement": "125I-CYP binding, Salm competition curve (Figure 4F)", "setting": "guinea pig β2AR [1]; Log [Salm] (M) -9.91339", "result": "96.4457 and 99.6997 and 100.705 and 99.5228"}, {"measurement": "125I-CYP binding, Salm competition curve (Figure 4F)", "setting": "guinea pig β2AR [1]; Log [Salm] (M) -11 (DMSO)", "result": "100.872 and 95.2897 and 98.0192 and 98.0519"}, {"measurement": "cAMP, constitutive activity of overexpressed β2AR (Figure 4C)", "setting": "guinea pig β2AR [2]; Species of β2AR: Guinea pig", "result": "48.9693 and 55.2023 and 45.6589 and 55.6328"}, {"measurement": "PAM activity in cAMP production induced by constitutive activity of overexpressed guinea pig β2AR", "setting": "guinea pig β2AR [2]; no orthosteric agonist, 20 minutes", "result": "equivalent to what we observed with the overexpressed human receptor"}, {"measurement": "OVA-induced airway constriction response (Figure 6)", "setting": "[3]; [OVA] 0.001 ng/ml", "result": "101.6 and 100.0 and 98.0 and 99.2 and 107.5"}, {"measurement": "OVA-induced airway constriction response (Figure 6)", "setting": "[3]; [OVA] 0.01 ng/ml", "result": "101.3 and 100.0 and 95.9 and 96.7 and 107.5"}, {"measurement": "OVA-induced airway constriction response (Figure 6)", "setting": "[3]; [OVA] 0.1 ng/ml", "result": "101.6 and 100.0 and 97.5 and 97.8 and 107.5"}, {"measurement": "OVA-induced airway constriction response (Figure 6)", "setting": "[3]; [OVA] 1 ng/ml", "result": "101.6 and 99.9 and 95.4 and 99.0 and 107.5"}, {"measurement": "OVA-induced airway constriction response (Figure 6)", "setting": "[3]; [OVA] 10 ng/ml", "result": "101.3 and 109.6 and 95.4 and 102.0 and 106.4"}, {"measurement": "OVA-induced airway constriction response (Figure 6)", "setting": "[3]; [OVA] 100 ng/ml", "result": "102.3 and 105.5 and 95.6 and 99.3 and 107.0"}, {"measurement": "OVA-induced airway constriction response (Figure 6)", "setting": "[3]; [OVA] 1000 ng/ml", "result": "102.2 and 108.2 and 105.1 and 101.8"}, {"measurement": "OVA-induced airway constriction response (Figure 6)", "setting": "[3]; [OVA] 10000 ng/ml", "result": "101.8 and 96.8 and 105.1 and 98.0 and 79.6"}, {"measurement": "OVA-induced airway constriction response (Figure 6)", "setting": "[3]; [OVA] 100000 ng/ml", "result": "101.6 and 81.6 and 100.1 and 89.5 and 64.4"}, {"measurement": "OVA-induced airway constriction response (Figure 6)", "setting": "[3]; [OVA] 1000000 ng/ml", "result": "101.0 and 77.3 and 94.7 and 90.3 and 74.1"}]}
